Reference: patent US20030059511A1, “Sweetener compositions and uses thereof” (AJINOMOTO CO., INC., priority 1999, published 2003)

Legend:
Format in all cases: in vivo, human
[1] = Magnification of sweetness intensity in the cola drink (sensory evaluation against sucrose cola drinks); settings: for magnification of sweetness intensity in the cola drink: vs cola drink containing 10% sucrose
Excerpt: And the magnification of sweetness intensity in the cola drink can be also determined by the same method compared to the control solution of cola drink containing 10% sucrose.
The composition of cola drink is as follows.
As for the concentration of the references, the sucrose concentrations of previous (a) to (e) were used. In consequence, the magnification of sweetness intensity in the cola drink of derivative 1 was 22600 times, and that of derivative 2 was 4900 times.
And the magnification of sweetness intensity in the cola drink can be also determined by the same method compared to the reference solution of cola drink containing 10% sucrose.
The components of cola drink is as follows.
As for the concentration of the references, the sucrose concentrations of previous (a) to (e) were used. As the results, the magnification of sweetness intensity in the cola drink of derivative 1 was 22600 times, and that of derivative 2 was 4900 times.
And the magnification of sweetness in the cola drink can be also determined by the same method compared to the control solution of cola drink containing 10% sucrose.
As for the concentration of the references, the sucrose concentrations of previous (a) to (e) were used. As a result, the magnification of sweetness intensity in the cola drink of derivative 1 was 22600 times, and that of derivative 2 was 4900 times.

[2] = Equations for calculating sweetness intensity and values calculated from them; settings: for concentration of the derivative of PSE 0.5%: from the cola drink equation of Example 17; for X when Y=6.3%: from the equation of the respective derivative
Excerpt: For example, when preparing a solution having a intensity of sweetness equivalent to that of 10% sucrose, wherein 80% of the 10% of intensity of sweetness is from the sweetener component A and the residual 20% is from the sweetener component B, the sweetness ratio is A:B=8:2. When the sweetening magnification relative to sucrose varies depending on the composition and the concentration of the sweetener component is varied even if it is a same sweetener component (in this case, an exponential curve can be prepared and used for calculation), the objective weight of the sweetener component can be calculated. For example, if the equation for converting sweetness intensity (the exponential curve) component A is Y=aX^b, and the equation for converting sweetness intensity (the exponential curve)of component B is Y=cX^d, the weight ratio of the components A and B in the ratio A:B=8:2, can be determined using the following calculation, where Y is a concentration equivalent to that of sucrose (PSE %), and X is the sweetener component concentration (g/100 ml):
(§1) Equations for calculating sweetness intensity in the cola drink (pH 2.8, 20° C.) are as follows, wherein Y denotes the concentration equivalent to that of sucrose (g/100 ml) and X denotes the concentration of the sweetener (g/100 ml), respectively.
With regard to Acesulfame K, the magnification of sweetness intensity was determined according to the following equation for calculating sweetness intensity.
[Y: concentration equivalent to that of sucrose (g/100ml); X: concentration of Acesulfame K (g/100 ml)]
By using the equation for calculating sweetness intensity in the cola drink (refer to Example 4) and the equation for calculating sweetness intensity of Aspartame (refer to the monthly Journal “Food Chemical” August, page 35, 1997), the necessary amounts of those were calculated. In case of Aspartame, the values at 20° C., pH2.8 were used.
The equation for calculating sweetness intensity of derivative 1 in the aqueous solution is as follows.
Where, the calculation of the sweetness was made by using the equation for calculating sweetness intensity of derivative 4 Y=58775X^1.04. When Y=6.3%, X=0.00015 g/100 ml, When Y=5.1%, X=0.00012 g/100 ml.
as §1, with “Examples for equations” for “Equations”, “(pH2.8,” for “(pH 2.8,”, “follows, and another equations can be prepared in the same manner,” for “follows,”

[3] = Measurement of the magnification of sweetness intensity in aqueous solution (sensory evaluation against sucrose solutions); settings: for Amount equivalent to PSE 10% / intensity of sweetness, times that of sucrose (magnification of sweetness intensity): aqueous solution; for intensity of sweetness, times that of sucrose (magnification of sweetness intensity): about PSE 10%
Experimental: (§2) An aqueous solution was prepared by diluting derivative 2 to be PSE 10% concentration (15.5 mg/1000 ml=10/6500 g/100 ml), assuming that the intensity of sweetness of derivative 2 was 6500 times that of sucrose. Separately, aqueous sucrose solutions having sucrose concentrations of (a)6.94%, (b)8.33%, (c)10%, (d)12%, and (e)14.4% were prepared. The sensory evaluation was performed by determining which sucrose solution was closest to the solution of derivative 2 in the sweetness intensity. The result of calculation of the average of points of 20 panelists was 2.25 point.
(§3) The intensity of sweetness of the solution of derivative 2 was 8.75% according to the following equation: (10.0−8.33)×0.25+8.33=8.75. Accordingly, the intense sweetness of derivative 2 was 5600 (=8.75/0.00155) times that of sucrose. According to the same experiment, the intensity of sweetness of derivative 1 was 22600 times that of sucrose. Furthermore, the magnification of sweetness intensity of other derivatives (3 to 9) can be determined by the same method.
as §3, with “intensity of” for “intense”
as §2, with “intense” for “intensity of”
The sweetness intensity of the solution of derivative 2 was 8.75% according to the following equation: (10.0−8.33)×0.25+8.33=8.75. Therefore, the magnification of sweetness intensity of derivative 2 was 5600 (=8.75/0.00155) times that of sucrose. When the same experiment was performed, the magnification of sweetness intensity of derivative 1 was 22600 times that of sucrose.

## COC(=O)[C@H](Cc1ccccc1)NC(=O)[C@H](CC(=O)O)NCCC(C)(C)c1ccc(O)cc1 [Derivative 6, N-[N-[3-(4-hydroxyphenyl)-3-methylbutyl]-L-α-aspartyl]-L-phenylalanine 1-methyl ester]
[1]
  Amount equivalent to PSE 10%: 7.1 mg/1000 ml
[2]; from the equation of derivative 6
  X when Y=9.6%: 0.000685 g/100 ml
[3]
  Amount equivalent to PSE 10%: 6.7 mg/1000 ml

## COC(=O)[C@H](Cc1ccccc1)NC(=O)[C@H](CC(=O)O)NCCCc1ccc(OC)c(O)c1 [Derivative 1, N-[N-[3-(3-hydroxy-4-methoxyphenyl)propyl] -L-α-aspartyl]-L-phenylalanine 1-methyl ester]
[1]
  Amount equivalent to PSE 10%: 4.5 mg/1000 ml
  magnification of sweetness intensity in the cola drink: 22600 times
[2]; calculated, block ice of Example 12
  magnification of the sweetness intensity at PSE 5%: 25600 times
[2]; cola drink, pH 2.8, 20° C.
  X, concentration of the sweetener when Y=1: 0.000074 g/100 ml
  X, concentration of the sweetener when Y=2: 0.00013 g/100 ml
  X, concentration of the sweetener when Y=5: 0.00026 g/100 ml
  X, concentration of the sweetener when Y=8: 0.00037 g/100 ml
  X, concentration of the sweetener when Y=9.5: 0.000425 g/100 ml
[2]
  concentration of the derivative of PSE 0.5%: 0.0000434 g/dL
[3]
  Amount equivalent to PSE 10%: 4.5 mg/1000 ml
  intensity of sweetness, times that of sucrose (magnification of sweetness intensity): 22600 times

## COC(=O)[C@H](Cc1ccccc1)NC(=O)[C@H](CC(=O)O)NCCCc1ccc(OC)cc1 [Derivative 2, N-[N-[3-(4-methoxyphenyl)propyl]-L-α-aspartyl]-L-phenylalanine 1-methyl ester]
[1]
  Amount equivalent to PSE 10%: 20.4 mg/1000 ml
  magnification of sweetness intensity in the cola drink: 4900 times
[2]; calculated, sweetener for tabletop use
  magnification of sweetness intensity at PSE 4%: 6000 times
[2]
  concentration of the derivative of PSE 0.5%: 0.0000597 g/dL
[3]
  Amount equivalent to PSE 10%: 17.9 mg/1000 ml
  intensity of sweetness, times that of sucrose (magnification of sweetness intensity): 5600 times
[3]; aqueous solution 15.5 mg/1000 ml, sucrose-equivalent concentration
  intensity of sweetness of the solution: 8.75%
[3]; derivative 2 aqueous solution 15.5 mg/1000 ml, closest of sucrose solutions (a)6.94% to (e)14.4%
  average of points of 20 panelists: 2.25 point

## COC(=O)[C@H](Cc1ccccc1)NC(=O)[C@H](CC(=O)O)NCCC(C)(C)c1ccc(O)c(C)c1 [Derivative 4, N-[N-[3-(3-methyl-4-hydroxyphenyl)-3-methylbutyl]-L-α-aspartyl]-L-phenylalanine 1-methyl ester]
[1]
  Amount equivalent to PSE 10%: 3.4 mg/1000 ml
[2]; from the equation of derivative 4
  X when Y=5.1%: 0.00012 g/100 ml
[2]
  X when Y=6.3%: 0.00015 g/100 ml
[3]
  Amount equivalent to PSE 10%: 2.3 mg/1000 ml

## COC(=O)[C@H](Cc1ccccc1)NC(=O)[C@H](CC(=O)O)NCCCc1ccc(O)c(C)c1 [Derivative 8, N-[N-[3-(3-methyl-4-hydroxyphenyl)propyl]-L-α-aspartyl]-L-phenylalanine 1-methyl ester]
[1]
  Amount equivalent to PSE 10%: 6.3 mg/1000 ml
[2]; from the equation of derivative 8
  X when Y=8.9%: 0.00055 g/100 ml
[2]
  X when Y=6.3%: 0.00036 g/100 ml
[3]
  Amount equivalent to PSE 10%: 5.5 mg/1000 ml
